As a reminder, the Ki is the dissociation constant of the complex between target and ligand, obtained from inhibition or displacement.

Like-named read-outs stand apart in the source and are kept apart here.

The values that follow come from patent US11596639B2, “Substituted indole Mcl-1 inhibitors” (Vanderbilt University, priority 2016, dated 2023).

One test deals with Mcl-1 (Homo sapiens (Human), UniProt Q07820). Briefly: TR-FRET binding assay, FITC-Bak peptide and MBP-tagged Mcl-1. The conditions noted are these: read-out: Ki for Inhibition of Mcl-1 by TR-FRET assay. How it is done:
Compounds are diluted in DMSO in a 16-point, semilog serial dilution scheme. […] The plate was mixed and incubated for 3 hours at room temperature. […] TR-FRET signal is plotted and IC50 and Ki values are calculated in the same manner as the fluorescence polarization anisotropy based competition assays.
Background: In TR-FRET formats the signal depends on donor and acceptor labels being close together.

The test system of test [1] is H929 human cancer cell lines. Briefly: Cellular viability / proliferation (Cell TiterGlo, 72 h). Type of test: cell-based. Put shortly:
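1,000 cells/well, 10% FBS medium; compound added at 24 h, 2-fold dilutions from 50 μM top, DMSO <1% final. 72 h exposure, CellTiterGlo 30 min RT dark, luminescence read. IC50 by 4-parameter fit.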
Background: In ATP-based viability assays light output follows the ATP content of the culture.

The mark [2] stands for this setting: Homo sapiens, NCI-H929, 72 h, read-out: GI50 on cellular proliferation of H929 human cancer cell lines, H929 cells, 72 h, Cell TiterGlo, 10% FBS.
[3] abbreviates: read-out: GI50 on cellular proliferation of H929 human cancer cell lines, H929 cells, 72 h, Cell TiterGlo, 10% FBS.

Mcl-1, sequence (Q07820 172-327): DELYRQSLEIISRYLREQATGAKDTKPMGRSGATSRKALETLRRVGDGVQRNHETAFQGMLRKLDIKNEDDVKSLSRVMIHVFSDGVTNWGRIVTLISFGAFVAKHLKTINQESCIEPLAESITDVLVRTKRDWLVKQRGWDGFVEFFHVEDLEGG

For the compound `Cc1cccc(Cn2cc(C(=O)O)c3cccc(N4C[C@@H](C)n5c(c(CCCOc6cc(C)c(Cl)c(C)c6)c6ccc(Cl)c(-c7c(C)nn(C)c7C)c65)C4=O)c32)n1` (single isomer, unassigned) [Example 491], the Ki on Mcl-1 was under 0.2 nM. Besides, the GI50 in test [1] (setting [2]) was found to be 280 nM.
In the case of `Cc1cccc(Cn2cc(C(=O)O)c3cccc(N4C[C@@H](C)n5c(c(CCCOc6cc(C)c(Cl)c(C)c6)c6ccc(Cl)c(-c7c(C)nn(C)c7C)c65)C4=O)c32)n1` (single isomer, unassigned) [Example 494], the Ki at Mcl-1 came to 0.3 nM. The GI50 in test [1] (setting [3]) came out at 450 nM.
In the case of `Cc1ccc(Cn2cc(C(=O)O)c3cccc(N4C[C@@H](C)n5c(c(CCCOc6cc(C)c(Cl)c(C)c6)c6ccc(Cl)c(-c7c(C)nn(C)c7C)c65)C4=O)c32)nc1` (single isomer, unassigned) [Example 501], the Ki at Mcl-1 is 0.68 nM. For the same compound, the GI50 in test [1] (setting [2]) worked out at 1200 nM.
Regarding `Cc1ccc(Cn2cc(C(=O)O)c3cccc(N4C[C@@H](C)n5c(c(CCCOc6cc(C)c(Cl)c(C)c6)c6ccc(Cl)c(-c7c(C)nn(C)c7C)c65)C4=O)c32)nc1` (single isomer, unassigned) [Example 507], the Ki at Mcl-1 was determined as 0.72 nM. Also, the GI50 in test [1] (setting [3]) stood at 1400 nM.
For `COCCn1cc(C(=O)O)c2cc(OC)cc(N3C[C@@H](C)n4c(c(CCCOc5cc(C)c(Cl)c(C)c5)c5ccc(Cl)c(-c6c(C)nn(C)c6C)c54)C3=O)c21` (single isomer, unassigned) [Example 672] the same measures were 0.43 nM and 840 nM.
The like results for `COCCn1cc(C(=O)O)c2cc(OC)cc(N3C[C@@H](C)n4c(c(CCCOc5cc(C)c(Cl)c(C)c5)c5ccc(Cl)c(-c6c(C)nn(C)c6C)c54)C3=O)c21` (single isomer, unassigned) [Example 673] were, in that order, 0.31 nM and 230 nM.
As for `COc1ccnc(Cn2c(C(=O)O)cc3c(OC)ccc(N4C[C@@H](C)n5c(c(CCCOc6cc(C)c(Cl)c(C)c6)c6ccc(Cl)c(-c7c(C)ncnc7C)c65)C4=O)c32)c1` [Example 476, (R)-7-(7-Chloro-10-(3-(4-chloro-3,5-dimethylphenoxy)propyl)-6-(4,6-dimethylpyrimidin-5-yl)-4-methyl-1-oxo-3,4-dihydropyrazino[1,2-a]indol-2(1H)-yl)-4-methoxy-1-((4-methoxypyridin-2-yl)methyl)-1H-indole-2-carboxylic acid], at Mcl-1, the Ki was under 0.2 nM. Moreover, the GI50 in test [1] (setting [2]) is under 200 nM.
For `COc1ccc(N2C[C@@H](C)n3c(c(CCCOc4cc(C)c(Cl)c(C)c4)c4ccc(Cl)c(-c5c(C)ncnc5C)c43)C2=O)c2c1cc(C(=O)O)n2Cc1cccc(C)n1` [Example 477, (R)-7-(7-Chloro-10-(3-(4-chloro-3,5-dimethylphenoxy)propyl)-6-(4,6-dimethylpyrimidin-5-yl)-4-methyl-1-oxo-3,4-dihydropyrazino[1,2-a]indol-2(1H)-yl)-4-methoxy-1-((6-methylpyridin-2-yl)methyl)-1H-indole-2-carboxylic acid] the same measures were under 0.2 nM and under 200 nM.
For `COc1ccc(N2C[C@@H](C)n3c(c(CCCOc4cc(C)c(Cl)c(C)c4)c4ccc(Cl)c(-c5c(C)ncnc5C)c43)C2=O)c2c1cc(C(=O)O)n2Cc1ccc(C)cn1` [Example 478, (R)-7-(7-Chloro-10-(3-(4-chloro-3,5-dimethylphenoxy)propyl)-6-(4,6-dimethylpyrimidin-5-yl)-4-methyl-1-oxo-3,4-dihydropyrazino[1,2-a]indol-2(1H)-yl)-4-methoxy-1-((5-methylpyridin-2-yl)methyl)-1H-indole-2-carboxylic acid] the same measures were 0.24 nM and 560 nM.
For the compound `Cc1cc(OCCCc2c3n(c4c(-c5c(C)nn(C)c5C)c(Cl)ccc24)[C@H](C)CN(c2cc(N(C)C(=O)CN4CCN(C)CC4)cc4c(C(=O)O)cn(C)c24)C3=O)cc(C)c1Cl` [Example 604, (R)-7-(7-chloro-10-(3-(4-chloro-3,5-dimethylphenoxy)propyl)-4-methyl-1-oxo-6-(1,3,5-trimethyl-1H-pyrazol-4-yl)-3,4-dihydropyrazino[1,2-a]indol-2(1H)-yl)-t-methyl-5-(N-methyl-2-(4-methylpiperazin-1-yl)acetamido)-1H-indole-3-carboxylic acid], the Ki at Mcl-1 was 0.73 nM.
Still for that read-out and setting: with `Cc1cc(OCCCc2c3n(c4c(-c5c(C)nn(C)c5C)c(Cl)ccc24)[C@H](C)CN(c2cc(N(C)C(=O)CN(C)C)cc4c(C(=O)O)cn(C)c24)C3=O)cc(C)c1Cl` [Example 611, (R)-7-(7-chloro-10-(3-(4-chloro-3,5-dimethylphenoxy)propyl)-4-methyl-1-oxo-6-(1,3,5-trimethyl-1H-pyrazol-4-yl)-3,4-dihydropyrazino[1,2-a]indol-2(1H)-yl)-5-(2-(dimethylamino)-N-methylacetamido)-1-methyl-1H-indole-3-carboxylic acid] the figure was 1.1 nM; with `Cc1cc(OCCCc2c3n(c4c(-c5c(C)nn(C)c5C)c(Cl)ccc24)[C@H](C)CN(c2cc(N(C)C(=O)CN4CCCC4)cc4c(C(=O)O)cn(C)c24)C3=O)cc(C)c1Cl` [Example 613, (R)-7-(7-chloro-10-(3-(4-chloro-3,5-dimethylphenoxy)propyl)-4-methyl-1-oxo-6-(1,3,5-trimethyl-1H-pyrazol-4-yl)-3,4-dihydropyrazino[1,2-a]indol-2(1H)-yl)-1-methyl-5-(N-methyl-2-(pyrrolidin-1-yl)acetamido)-1H-indole-3-carboxylic acid], 1.9 nM.
The same measure, in the same setting: next, `Cc1cc(OCCCc2c3n(c4c(-c5c(C)nn(C)c5C)c(Cl)ccc24)[C@H](C)CN(c2ccc4ccc(C(=O)O)nc4c2)C3=O)cc(C)c1Cl` [Example 666, (R)-7-(7-chloro-10-(3-(4-chloro-3,5-dimethylphenoxy)propyl)-4-methyl-1-oxo-6-(1,3,5-trimethyl-1H-pyrazol-4-yl)-3,4-dihydropyrazino[1,2-a]indol-2(1H)-yl)quinoline-2-carboxylic acid]: 7.2 nM; `COCCn1c(C(=O)O)cc2cc(C)cc(N3C[C@@H](C)n4c(c(CCCOc5cc(C)c(Cl)c(C)c5)c5ccc(Cl)c(-c6c(C)nn(C)c6C)c54)C3=O)c21` [Example 709, (M, R)-7-(7-chloro-10-(3-(4-chloro-3,5-dimethylphenoxy)propyl)-4-methyl-1-oxo-6-(1,3,5-trimethyl-1H-pyrazol-4-yl)-3,4-dihydropyrazino[1,2-a]indol-2(1H)-yl)-1-(2-methoxyethyl)-5-methyl-1H-indole-2-carboxylic acid]: under 0.2 nM.
With `COCCn1c(C(=O)O)cc2cc(C)cc(N3C[C@@H](C)n4c(c(CCCOc5cc(C)c(Cl)c(C)c5)c5ccc(Cl)c(-c6c(C)nn(C)c6C)c54)C3=O)c21` [Example 710, (P, R)-7-(7-chloro-10-(3-(4-chloro-3,5-dimethylphenoxy)propyl)-4-methyl-1-oxo-6-(1,3,5-trimethyl-1H-pyrazol-4-yl)-3,4-dihydropyrazino[1,2-a]indol-2(1H)-yl)-1-(2-methoxyethyl)-5-methyl-1H-indole-2-carboxylic acid], the Ki on Mcl-1 is under 0.2 nM.
Still for that read-out and setting: next, `COCCOc1cc(N2C[C@@H](C)n3c(c(CCCOc4cc(C)c(Cl)c(C)c4)c4ccc(Cl)c(-c5c(C)nn(C)c5C)c43)C2=O)c2c(c1)cc(C(=O)O)n2C` [Example 711, (M, R)-7-(7-chloro-10-(3-(4-chloro-3,5-dimethylphenoxy)propyl)-4-methyl-1-oxo-6-(1,3,5-trimethyl-1H-pyrazol-4-yl)-3,4-dihydropyrazino[1,2-a]indol-2(1H)-yl)-5-(2-methoxyethoxy)-1-methyl-1H-indole-2-carboxylic acid]: under 0.2 nM.
The same measure, in the same setting: next, `COCCOc1cc(N2C[C@@H](C)n3c(c(CCCOc4cc(C)c(Cl)c(C)c4)c4ccc(Cl)c(-c5c(C)nn(C)c5C)c43)C2=O)c2c(c1)cc(C(=O)O)n2C` [Example 712, (P, R)-7-(7-chloro-10-(3-(4-chloro-3,5-dimethylphenoxy)propyl)-4-methyl-1-oxo-6-(1,3,5-trimethyl-1H-pyrazol-4-yl)-3,4-dihydropyrazino[1,2-a]indol-2(1H)-yl)-5-(2-methoxyethoxy)-1-methyl-1H-indole-2-carboxylic acid]: under 0.2 nM; `Cc1cc(N2C[C@@H](C)n3c(c(CCCOc4cc(C)c(Cl)c(C)c4)c4ccc(Cl)c(-c5c(C)nn(C)c5C)c43)C2=O)c2c(c1)cc(C(=O)O)n2Cc1ccccn1` [Example 713, (M, R)-7-(7-chloro-10-(3-(4-chloro-3,5-dimethylphenoxy)propyl)-4-methyl-1-oxo-6-(1,3,5-trimethyl-1H-pyrazol-4-yl)-3,4-dihydropyrazino[1,2-a]indol-2(1H)-yl)-5-methyl-1-(pyridin-2-ylmethyl)-1H-indole-2-carboxylic acid]: under 0.2 nM.
For the compound `Cc1cc(N2C[C@@H](C)n3c(c(CCCOc4cc(C)c(Cl)c(C)c4)c4ccc(Cl)c(-c5c(C)nn(C)c5C)c43)C2=O)c2c(c1)cc(C(=O)O)n2Cc1ccccn1` [Example 714, (P, R)-7-(7-chloro-10-(3-(4-chloro-3,5-dimethylphenoxy)propyl)-4-methyl-1-oxo-6-(1,3,5-trimethyl-1H-pyrazol-4-yl)-3,4-dihydropyrazino[1,2-a]indol-2(1H)-yl)-5-methyl-1-(pyridin-2-ylmethyl)-1H-indole-2-carboxylic acid], the Ki at Mcl-1 is under 0.2 nM.
